Data on 19 molecules can be found in patent publication US10329324B2 (viDA Therapeutics Inc., priority 2013, dated 2019).

Series [1] can be described thus: Kinetic solubility determination in PBS. The series is classed as physicochemical. The note with it: PBS 1X pH 7.4, 2.0% DMSO, 24 hour incubation at ambient temperature; for solubility at 24 h: phosphate buffered saline (PBS 1×), 21 °C, pH 7.4, aqueous buffer, kinetic from dmso stock. Here is the method: Kinetic solubility buffer (phosphate buffered saline (PBS, 1×) at pH 7.4) was prepared from PBS (10×) solution, (Fisher Scientific, Pittsburgh, Pa., USA, 10×), by adding PBS (50 mL, 10×) to approximately water (450 mL HPLC grade). The volume of the solution was then adjusted to 500 mL for a total dilution factor of 1:10 and a final PBS concentration of 1×. The pH of the final solution (PBS (1×)) was measured and found to be 7.4.
A DMSO stock solution (typically 10 mM or greater) was used for each compound to be tested. A final DMSO concentration of 2.0% and maximum theoretical compound concentration of typically 200 μM (or greater) was achieved by diluting an aliquot (6 μl) of each stock with kinetic solubility buffer (294 μl, PBS (1×) at pH 7.4) using a liquid handling system (Hamilton STARlet, Hamilton Robotics, Inc., Reno, Nev., USA) and incubated directly in a solubility filter plate (Millipore, Billerica, Mass., USA). Following 24 hour incubation at ambient temperature (20.5-21.7° C.), each sample was vacuum filtered. The filtrate was injected into the chemiluminescent nitrogen detector for quantification (Automated Discovery Workstation, Analiza, Inc., Cleveland, Ohio, USA). Each result was reported both in μM and μg/mL units. Three separate on-board performance indicating standards were assayed in triplicate with each test compound to ensure test results were within the acceptable range.
The equimolar nitrogen response of the detector was calibrated using standards which spanned the dynamic range of the instrument from 0.08 to 4500 μg/ml nitrogen. Each filtrate was quantified with respect to this calibration curve. Each calculated solubility value was corrected for background nitrogen present in the DMSO, and buffer used to prepare each sample. All reported values for samples containing adjacent nitrogen atoms in a ring structure were corrected for the expected non-equimolar response. Each calculated solubility result assumed that each sample was free of nitrogen containing impurities and was stable under the assay conditions. Analyses were performed at Analiza Inc. (Cleveland, Ohio, USA) by published methods (Bhattachar, S. N., et al, J. Pharma. BioMed Anal. 41:152-7 2006).

The target in series [2] is T1, human Granzyme B (hGzmB) (Homo sapiens, UniProt P10144).
T1 construct: purchased Froelich Lab, Northshore University Health Systems Research Institute, Evanston, Ill., USA
Kind of series: Human Granzyme B enzymatic inhibition assay (fluorogenic, kinetic). Type of series: biochemical. The note with it: activity codes, Table 7; read-out: IC50 Activity Range. A digest of the protocol: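 Human Granzyme B preincubated with compound for 30 min total (5 min shaking, 20 min bench, then reaction temperature). Fluorogenic substrate added and read kinetically, 25 cycles at 1-min intervals. Percent inhibition at one or two concentrations or 8–12-point 3-fold dose response from 20 uM, replicates, with IC50 by non-linear regression.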

Setting [3] is: read-out: Solubility in aqueous PBS Buffer (1X, pH 7.4).
The mark [4] stands for this setting: read-out: Solubility in aqueous PBS Buffer (1X, pH 7.4), ug/mL.

Molecules are shown by their SMILES. Counter-ions that a name gives are not always drawn. Like-named read-outs stand apart in the source and are kept apart here.

T1 sequence (P10144 21-247): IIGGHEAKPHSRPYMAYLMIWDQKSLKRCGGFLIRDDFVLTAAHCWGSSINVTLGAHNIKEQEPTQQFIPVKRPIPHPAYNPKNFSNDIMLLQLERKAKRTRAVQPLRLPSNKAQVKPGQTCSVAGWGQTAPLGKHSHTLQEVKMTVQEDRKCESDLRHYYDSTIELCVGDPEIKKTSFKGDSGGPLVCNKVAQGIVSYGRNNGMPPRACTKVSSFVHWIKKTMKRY

With `CC[C@H](C)[C@H](NC(=O)Cc1ccccc1)C(=O)N[C@@H](C)C(=O)N1c2ccccc2C[C@H]1C(=O)NCc1nn[nH]n1` [Example C11, (2S)-1-[(2S)-2-[(2S,3S)-3-Methyl-2-(2-Phenylacetamido)Pentanamido]Propanoyl]-N-(2H-1,2,3,4-Tetrazol-5-Ylmethyl)-2,3-Dihydro-1H-Indole-2-Carboxamide], the values for the solubility at 24 h in series [1] (setting [3]) and in series [1] (setting [4]) were 125 µM and 68 µg/mL, respectively. The IC50 in series [2] lay in the range of 1000 to 10000 nM.
Take `CC[C@H](C)[C@H](NC(=O)CCC(C)(C)C(=O)O)C(=O)NCC(=O)N1c2ccccc2C[C@H]1C(=O)NCc1nn[nH]n1` [Example A52, 2,2-Dimethyl-4-{[(1S,2S)-2-Methyl-1-({2-Oxo-2-[(2S)-2-[(2H-1,2,3,4-Tetrazol-5-Ylmethyl)Carbamoyl]-2,3-Dihydro-1H-Indol-1-Yl]Ethyl}Carbamoyl)Butyl]Carbamoyl}Butanoic Acid]: the solubility at 24 h in series [1] (setting [3]) was above 750 µM; in series [1] (setting [4]), above 418 µg/mL. Further, the 50% inhibitory concentration (IC50) in series [2] was below 100 nM.
With `CC[C@H](C)[C@H](NC(=O)Cc1ccccc1)C(=O)NCC(=O)N1c2ccc(N)cc2C[C@H]1C(=O)NCc1nn[nH]n1` [Example C32, (2S)-5-Amino-1-{2-[(2S,3S)-3-Methyl-2-(2-Phenylacetamido)Pentanamido]Acetyl}-N-(2H-1,2,3,4-Tetrazol-5-Ylmethyl)-2,3-Dihydro-1H-Indole-2-Carboxamide Hydrochloride], the solubility at 24 h in series [1] (setting [3]) was above 750 µM; in series [1] (setting [4]), above 438 µg/mL. Also, in series [2], the IC50 fell in the range of 100 to 1000 nM.
As for `CC[C@H](C)[C@H](NC(=O)CC(C)CC(=O)O)C(=O)NCC(=O)N1c2ccccc2C[C@H]1C(=O)NCc1nn[nH]n1` (single isomer, unassigned) [Example A17-1], the solubility at 24 h in series [1] (setting [3]) is above 750 µM; in series [1] (setting [4]), above 407 µg/mL. Also, the IC50 in series [2] was 100 to 1000 nM.
For `CC[C@H](C)[C@H](NC(=O)/C=C\C(=O)O)C(=O)NCC(=O)N1c2ccccc2C[C@H]1C(=O)NCc1nn[nH]n1` [Example A24, (2Z)-3-{[(1S,2S)-2-Methyl-1-({2-Oxo-2-[(2S)-2-[(2H-1,2,3,4-Tetrazol-5-Ylmethyl)Carbamoyl]-2,3-Dihydro-1H-Indol-1-Yl]Ethyl}Carbamoyl)Butyl]Carbamoyl}Prop-2-Enoic Acid], in that order: 719 µM, 441 µg/mL and below 100 nM.
Regarding `CC[C@H](C)[C@H](NC(=O)C(CCC(=O)O)c1ccccc1)C(=O)NCC(=O)N1c2ccccc2C[C@H]1C(=O)NCc1nn[nH]n1` (single isomer, unassigned) [Example A54-1], the solubility at 24 h was 451 µM in series [1] (setting [3]) and 273 µg/mL in series [1] (setting [4]). The half-inhibitory concentration (IC50) in series [2] is below 100 nM.
In the same order, the values of `CC[C@H](C)[C@H](NC(=O)Cc1ccccc1)C(=O)N[C@H](C)C(=O)N1c2ccccc2C[C@H]1C(=O)NCc1nn[nH]n1` [Example C12, (2S)-1-[(2R)-2-[(2S,3S)-3-Methyl-2-(2-Phenylacetamido)Pentanamido]Propanoyl]-N-(2H-1,2,3,4-Tetrazol-5-Ylmethyl)-2,3-Dihydro-1H-Indole-2-Carboxamide] are 112 µM, 61 µg/mL and above 10000 nM.
`CC[C@H](C)[C@H](NC(=O)C(C)(C)CCC(=O)O)C(=O)NCC(=O)N1c2ccccc2C[C@H]1C(=O)NCc1nn[nH]n1` [Example A55, 4,4-Dimethyl-4-{[(1S,2S)-2-Methyl-1-({2-Oxo-2-[(2S)-2-[(2H-1,2,3,4-Tetrazol-5-Ylmethyl)Carbamoyl]-2,3-Dihydro-1H-Indol-1-Yl]Ethyl}Carbamoyl)Butyl]Carbamoyl}Butanoic Acid]: the figures for the solubility at 24 h in series [1] (setting [3]) and in series [1] (setting [4]) were above 750 µM and above 418 µg/mL, respectively. In addition, the IC50 in series [2] was below 100 nM.
In the same order, the values of `CC[C@H](C)[C@H](NC(C)=O)C(=O)NCC(=O)N1c2ccccc2C[C@H]1C(=O)NCc1nn[nH]n1` [Example A15, (2S)-1-{2-[(2S,3S)-2-Acetamido-3-Methylpentanamido]Acetyl}-N-(2H-1,2,3,4-Tetrazol-5-Ylmethyl)-2,3-Dihydro-1H-Indole-2-Carboxamide] are 565 µM, 258 µg/mL and 100 to 1000 nM.
In the case of `CC[C@H](C)[C@H](NC(=O)C1CC1C(=O)O)C(=O)NCC(=O)N1c2ccccc2C[C@H]1C(=O)NCc1nn[nH]n1` (single isomer, unassigned) [Example A26-1], the results for the solubility at 24 h in series [1] (setting [3]) and in series [1] (setting [4]) were above 750 µM and above 395 µg/mL, respectively. In series [2], the concentration for half-maximal inhibition (IC50) was below 100 nM.
Regarding `CC[C@H](C)[C@H](NC(=O)CC(C)CC(=O)O)C(=O)NCC(=O)N1c2ccccc2C[C@H]1C(=O)NCc1nn[nH]n1` (single isomer, unassigned) [Example A17-2], in series [1], the “Solubility in aqueous PBS Buffer (1X, pH 7.4), uM” value is on record as above 750 uM and the “Solubility in aqueous PBS Buffer (1X, pH 7.4), ug/mL” value is above 407 ug/mL. Moreover, the half-inhibitory concentration (IC50) in series [2] lay in the range of 100 to 1000 nM.
`CC[C@H](C)[C@H](NC(=O)Cc1cccnc1)C(=O)NCC(=O)N1c2ccccc2C[C@H]1C(=O)NCc1nn[nH]n1` [Example A3, (2S)-1-{2-[(2S,3S)-3-Methyl-2-[2-(Pyridin-3-Yl)Acetamido]Pentanamido]Acetyl}-N-(2H-1,2,3,4-Tetrazol-5-Ylmethyl)-2,3-Dihydro-1H-Indole-2-Carboxamide]: the solubility at 24 h stood at 139 µM in series [1] (setting [3]) and 74 µg/mL in series [1] (setting [4]). Further, the half-inhibitory concentration (IC50) in series [2] was in the range of 100 to 1000 nM.
For `CC[C@H](C)[C@H](NC(=O)C1CCCC1C(=O)O)C(=O)NCC(=O)N1c2ccccc2C[C@H]1C(=O)NCc1nn[nH]n1` (single isomer, unassigned) [Example A22-2], in series [1], the “Solubility in aqueous PBS Buffer (1X, pH 7.4), uM” value is listed as above 750 uM and the “Solubility in aqueous PBS Buffer (1X, pH 7.4), ug/mL” value is listed as above 416 ug/mL. Besides, in series [2], the IC50 was below 100 nM.
With `CC[C@H](C)[C@H](NC(=O)Cc1ccc(CC(=O)O)cc1)C(=O)NCC(=O)N1c2ccccc2C[C@H]1C(=O)NCc1nn[nH]n1` [Example A34, 2-[4-({[(1S,2S)-2-Methyl-1-({2-Oxo-2-[(2S)-2-[(2H-1,2,3,4-Tetrazol-5-Ylmethyl)Carbamoyl]-2,3-Dihydro-1H-Indol-1-Yl]Ethyl}Carbamoyl)Butyl]Carbamoyl}Methyl)Phenyl]Acetic Acid], the solubility at 24 h in series [1] (setting [3]) was above 750 µM; in series [1] (setting [4]), above 443 µg/mL. In addition, the IC50 in series [2] was below 100 nM.
`CC[C@H](C)[C@H](NC(=O)Cc1ccccc1)C(=O)NCC(=O)N1c2cc(NCc3ccccc3)ccc2C[C@H]1C(=O)NCc1nn[nH]n1` [Example C21, (2S)-6-(Benzylamino)-1-{2-[(2S,3S)-3-Methyl-2-(2-Phenylacetamido)Pentanamido]Acetyl}-N-(2H-1,2,3,4-Tetrazol-5-Ylmethyl)-2,3-Dihydro-1H-Indole-2-Carboxamide]: in series [2], the concentration for half-maximal inhibition (IC50) is above 10000 nM.
On to `CC(C)C[C@H](NC(=O)Cc1ccccc1)C(=O)NCC(=O)N1c2ccccc2C[C@H]1C(=O)NCc1nn[nH]n1` [Example C4, (2S)-1-{2-[(2S)-4-Methyl-2-(2-Phenylacetamido)Pentanamido]Acetyl}-N-(2H-1,2,3,4-Tetrazol-5-Ylmethyl)-2,3-Dihydro-1H-Indole-2-Carboxamide], for which the concentration for half-maximal inhibition (IC50) in series [2] was in the range of 1000 to 10000 nM.
With `CC[C@H](C)[C@H](NC(=O)Cc1ccccc1)C(=O)NCC(=O)N1c2ccc(NCc3ccccc3)cc2C[C@H]1C(=O)NCc1nn[nH]n1` [Example C35], the IC50 in series [2] is above 10000 nM.
As to `O=C(Cc1ccccc1)N[C@H](C(=O)NCC(=O)N1c2ccccc2C[C@H]1C(=O)NCc1nn[nH]n1)C1CCCCC1` [Example A11, (2S)-1-{2-[(2S)-2-Cyclohexyl-2-(2-Phenylacetamido)Acetamido]Acetyl}-N-(2H-1,2,3,4-Tetrazol-5-Ylmethyl)-2,3-Dihydro-1H-Indole-2-Carboxamide], in series [2], the half-inhibitory concentration (IC50) lay within 1000 to 10000 nM.
For `CC[C@H](C)[C@H](NC(=O)Cc1ccccc1)C(=O)NCC(=O)N1c2c(cccc2NC(C)=O)C[C@H]1C(=O)NCc1nn[nH]n1` [Example C30, (2S)-7-Acetamido-1-{2-[(2S,3S)-3-Methyl-2-(2-Phenylacetamido)Pentanamido]Acetyl}-N-(2H-1,2,3,4-Tetrazol-5-Ylmethyl)-2,3-Dihydro-1H-Indole-2-Carboxamide], the 50% inhibitory concentration (IC50) in series [2] is above 10000 nM.
